Our source for the IC50 values is patent US10722514B2 (FLX Bio, Inc., priority 2017, dated 2020).

Molecules are shown by their SMILES. Structures can show the parent of a compound that is named as a salt.

T1 sequence (Q93009 whole entry): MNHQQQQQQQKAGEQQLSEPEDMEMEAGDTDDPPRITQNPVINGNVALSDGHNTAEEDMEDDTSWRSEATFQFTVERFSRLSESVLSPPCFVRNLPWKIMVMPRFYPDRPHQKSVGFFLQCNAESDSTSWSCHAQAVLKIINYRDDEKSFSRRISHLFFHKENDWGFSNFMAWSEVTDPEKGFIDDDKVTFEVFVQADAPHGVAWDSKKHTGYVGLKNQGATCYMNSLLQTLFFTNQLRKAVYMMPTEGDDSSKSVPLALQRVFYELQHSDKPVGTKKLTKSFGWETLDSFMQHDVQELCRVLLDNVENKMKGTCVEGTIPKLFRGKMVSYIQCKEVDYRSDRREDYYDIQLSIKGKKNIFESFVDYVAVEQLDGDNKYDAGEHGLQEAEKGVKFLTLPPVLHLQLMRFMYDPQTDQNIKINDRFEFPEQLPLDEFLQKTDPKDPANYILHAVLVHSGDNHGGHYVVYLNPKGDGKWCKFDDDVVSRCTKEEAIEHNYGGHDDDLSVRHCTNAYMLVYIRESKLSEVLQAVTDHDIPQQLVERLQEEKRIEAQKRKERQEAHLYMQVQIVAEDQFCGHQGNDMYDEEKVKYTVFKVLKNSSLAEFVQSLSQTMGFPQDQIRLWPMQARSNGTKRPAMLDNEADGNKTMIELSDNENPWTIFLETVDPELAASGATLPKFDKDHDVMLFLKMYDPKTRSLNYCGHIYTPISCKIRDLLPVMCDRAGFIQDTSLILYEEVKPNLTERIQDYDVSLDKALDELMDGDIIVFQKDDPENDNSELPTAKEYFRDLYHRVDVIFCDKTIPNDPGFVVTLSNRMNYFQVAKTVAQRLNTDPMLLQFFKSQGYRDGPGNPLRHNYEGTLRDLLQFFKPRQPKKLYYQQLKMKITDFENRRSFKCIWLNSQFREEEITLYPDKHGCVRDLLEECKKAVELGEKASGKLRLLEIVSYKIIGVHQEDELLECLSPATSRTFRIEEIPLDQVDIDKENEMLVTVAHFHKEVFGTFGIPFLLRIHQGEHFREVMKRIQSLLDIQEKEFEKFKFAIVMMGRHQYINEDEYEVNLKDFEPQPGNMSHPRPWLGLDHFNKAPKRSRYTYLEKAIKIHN

The first test has as its target T1, recombinant full-length USP7 (Homo sapiens, UniProt Q93009).
T1 construct: A 25 μl reaction volume containing recombinant full-length USP7 (62 pM)
Description: USP7-mediated ubiquitin-rhodamine cleavage assay. The class given is biochemical. Conditions: recombinant full-length USP7 62 pM; ubiquitin-rhodamine 100 nM; 30-minute incubation with compound, 1 hour reaction at room temperature; read-out: Potency: USP7 IC50. On the procedure:
In the case of the USP7 deubiquitylating enzyme, the IC50 of an USP7 inhibiting compound is the concentration of the compound that inhibits 50% of the activity observed in a USP7-mediated ubiquitin-rhodamine cleavage assay.
For the USP7 inhibitors disclosed herein, their potency was measured using the following test method.
A 25 μl reaction volume containing recombinant full-length USP7 (62 pM) in 20 mM HEPES pH 7.3, 150 mM NaCl, 1 mM TCEP, and 125 μg/ml BSA was assembled in wells of 384 well plates. Test compounds were dispensed with a Hewlett Packard D300 digital dispenser (1% final DMSO). Following a 30-minute incubation at room temperature, ubiquitin-rhodamine was added with the D300 to a final concentration of 100 nM and the reaction was allowed to proceed for 1 hour at room temperature protected from light. The reaction was stopped by the addition of 5 μl 1M acetic acid. Rhodamine fluorescence was measured using an Envision plate reader (Perkin Elmer) and IC50 values were determined by non-linear regression using a 4-parameter fit in a Dotmatics (Bishops Stortford, Hertfordshire, England) software package.
One may read the IC50 as the concentration that gives 50% inhibition. `Cc1cc(C#N)cc(-c2ccnc3cc(CN4C(=O)CCC4=O)sc23)c1OC1CCNCC1` [Example 212, 3-(2-((2,5-Dioxopyrrolidin-1-yl)methyl)thieno[3,2-b]pyridin-7-yl)-5-methyl-4-(piperidin-4-yloxy)benzonitrile]: the IC50 is < 1000 nM. Consider `Cc1cc([N+](=O)[O-])cc(-c2ccnc3cc(Cn4c(=O)ccn(CC(F)(F)F)c4=O)sc23)c1OCc1cn[nH]c1` [Example 283, 3-[[7-[3-methyl-5-nitro-2-(1H-pyrazol-4-ylmethoxy)phenyl]thieno[3,2-b]pyridin-2-yl]methyl]-1-(2,2,2-trifluoroethyl)pyrimidine-2,4-dione; 2,2,2-trifluoroacetic acid], for which the half-inhibitory concentration (IC50) was < 1000 nM. For the compound `Cc1cc(Cl)cc(-c2ccnc3cc(CN4C(=O)CCC4=O)sc23)c1O[C@@H]1CN[C@@H](CF)C1` [Example 101, 1-((7-(5-Chloro-2-(((3S,5R)-5-(fluoromethyl)pyrrolidin-3-yl)oxy)-3-methylphenyl)thieno[3,2-b]pyridin-2-yl)methyl)pyrrolidine-2,5-dione], the half-inhibitory concentration (IC50) was < 1000 nM. For the compound `Cc1cc(Cl)cc(-c2ncnc3cc(CN4C(=O)CCC4=O)sc23)c1O[C@@H]1CCNC[C@H]1F` [Example 306, 1-[[4-[5-chloro-2-[[(3R,4R)-3-fluoro-4-piperidyl]oxy]-3-methyl-phenyl]thieno[3,2-d]pyrimidin-6-yl]methyl]pyrrolidine-2,5-dione dihydrochloride], the 50% inhibitory concentration (IC50) was < 1000 nM.

For the compound `Cc1cc(C#N)cc(-c2ccnc3cc(COC4=NS(=O)(=O)CC4)sc23)c1O[C@@H]1CNC[C@@H]1F` [Example 115, 3-(2-(((1,1-Dioxido-4,5-dihydroisothiazol-3-yl)oxy)methyl)thieno[3,2-b]pyridin-7-yl)-4-(((3R,4S)-4-fluoropyrrolidin-3-yl)oxy)-5-methylbenzonitrile], the IC50 is 1000 to 10000 nM. Still for that read-out and setting: to `Cc1cc(C(F)(F)F)cc(-c2ccnc3cc(Cn4c(=O)ccn(C)c4=O)sc23)c1O[C@@H]1CNC[C@@H]1F` [Example 132, 3-((7-(2-(((3R,4S)-4-Fluoropyrrolidin-3-yl)oxy)-3-methyl-5-(trifluoromethyl)phenyl)thieno[3,2-b]pyridin-2-yl)methyl)-1-methylpyrimidine-2,4(1H,3H)-dione] belongs < 1000 nM.

Consider `Cc1cc(Cl)cc(-c2ccnc3cc(CN4C(=O)c5ccncc5C4=O)sc23)c1O[C@H]1CCCNC1` [Example 335, 2-[[7-[5-chloro-3-methyl-2-[[(3S)-3-piperidyl]oxy]phenyl]thieno[3,2-b]pyridin-2-yl]methyl]pyrrolo[3,4-c]pyridine-1,3-dione; 2,2,2-trifluoroacetic acid], for which the IC50 is < 1000 nM. Regarding `Cc1cc(Cl)cc(-c2ccnc3ccsc23)c1O[C@H]1CCCNC1` [Example 167, (S)-7-(5-Chloro-3-methyl-2-(piperidin-3-yloxy)phenyl)thieno[3,2-b]pyridine], the IC50 was in the range of 10000 to 30000 nM.

Consider `Cc1cc(C#N)cc(-c2ccnc3cc(CO)sc23)c1OCC1(C#N)CNC1` [Example 11, 3-((4-Cyano-2-(2-(hydroxymethyl)thieno[3,2-b]pyridin-7-yl)-6-methylphenoxy)methyl)azetidine-3-carbonitrile], for which the IC50 was 1000 to 10000 nM.

Regarding `CC[C@@H](c1cc2nccc(-c3cc(Cl)cc(C)c3OC3CCNCC3)c2s1)N1C(=O)CCC1=O` [Example 256, (S)-1-(1-(7-(5-Chloro-3-methyl-2-(piperidin-4-yloxy)phenyl)thieno[3,2-b]pyridin-2-yl)propyl)pyrrolidine-2,5-dione], the IC50 is 1000 to 10000 nM. As for `Cc1cc(Cl)cc(-c2ccnc3cc(CN4C(=O)CCC4=O)sc23)c1OC1CNCCOC1` (centres unmarked) [Example 271, 1-((7-(2-((1,4-Oxazepan-6-yl)oxy)-5-chloro-3-methylphenyl)thieno[3,2-b]pyridin-2-yl)methyl)pyrrolidine-2,5-dione], the IC50 is 1000 to 10000 nM.

The test is the same for the next values; noted with them: recombinant full-length USP7 62 pM; ubiquitin-rhodamine 100 nM; 30-minute pre-incubation, 1 hour reaction at room temperature; read-out: Potency (USP7 IC50).
For the compound `Cc1cc(Cl)cc(-c2ccnc3cc(Cn4c(=O)ccn(CC(F)(F)F)c4=O)sc23)c1O[C@@H]1CCCN[C@@H]1C` [Example 621, 3-[[7-[5-chloro-3-methyl-2-[[(2R,3R)-2-methyl-3-piperidyl]oxy]phenyl]thieno[3,2-b]pyridin-2-yl]methyl]-1-(2,2,2-trifluoroethyl)pyrimidine-2,4-dione; 2,2,2-trifluoroacetic acid], the half-inhibitory concentration (IC50) is < 1000 nM.

As to `Cc1cc(Cl)cc(-c2ccnc3cc(Cn4c(=O)[nH]cc(C(F)(F)F)c4=O)sc23)c1O[C@H]1CCCNC1` [Example 571, 3-[[7-[5-chloro-3-methyl-2-[[(3S)-3-piperidyl]oxy]phenyl]thieno[3,2-b]pyridin-2-yl]methyl]-5-(trifluoromethyl)-1H-pyrimidine-2,4-dione], the IC50 was < 1000 nM. Same read-out and setting: to `O=C1CCC(=O)N1Cc1cc2nccc(-c3cc(Cl)cc(C(F)F)c3OC3CCNCC3)c2s1` [Example 431, 1-[[7-[5-chloro-3-(difluoromethyl)-2-(4-piperidyloxy)phenyl]thieno[3,2-b]pyridin-2-yl]methyl]pyrrolidine-2,5-dione dihydrochloride] belongs < 1000 nM; to `Cc1cc(Cl)cc(-c2ccnc3cc(Cn4c(=O)ccn(CC(F)(F)F)c4=O)sc23)c1OCC1COC1` [Example 669, 3-[[7-[5-chloro-3-methyl-2-(oxetan-3-ylmethoxy)phenyl]thieno[3,2-b]pyridin-2-yl]methyl]-1-(2,2,2-trifluoroethyl)pyrimidine-2,4-dione], < 1000 nM; to `Cc1cc(Cl)cc(-c2ccnc3cc(Cn4c(=O)ccn(CC(F)(F)F)c4=O)sc23)c1OC1(C)CC(N)C1` (centres unmarked) [Example 640, 3-[[7-[2-(3-amino-1-methyl-cyclobutoxy)-5-chloro-3-methyl-phenyl]thieno[3,2-b]pyridin-2-yl]methyl]-1-(2,2,2-trifluoroethyl)pyrimidine-2,4-dione], < 1000 nM. Regarding `CC[C@H]1C[C@@H](Oc2c(C)cc(Cl)cc2-c2ccnc3cc(Cn4c(=O)ccn(C)c4=O)sc23)CCN1` [Example 610, 3-[[7-[5-chloro-2-[[(2S,4S)-2-ethyl-4-piperidyl]oxy]-3-methyl-phenyl]thieno[3,2-b]pyridin-2-yl]methyl]-1-methylpyrimidine-2,4-dione], the IC50 was < 1000 nM. For `Cc1cc(Cl)cc(-c2ccnc3cc(Cn4c(=O)ccn(CC(F)(F)F)c4=O)sc23)c1OCCN1CCOCC1` [Example 662, 3-[[7-[5-chloro-3-methyl-2-(2-morpholinoethoxy)phenyl]thieno[3,2-b]pyridin-2-yl]methyl]-1-(2,2,2-trifluoroethyl)pyrimidine-2,4-dione; 2,2,2-trifluoroacetic acid], the concentration for half-maximal inhibition (IC50) was < 1000 nM.

As for `Cc1cc(Cl)cc(-c2ccnc3cc(CN4C(=O)CCC4=O)sc23)c1OC1CC(C)(N)C1` (centres unmarked) [Example 443, 1-[[7-[2-(3-amino-3-methyl-cyclobutoxy)-5-chloro-3-methyl-phenyl]thieno[3,2-b]]pyridin-2-yl]methyl]pyrrolidine-2,5-dione dihydrochloride], the IC50 is < 1000 nM. Consider `Cc1cc(Cl)cc(-c2ccnc3cc(Cn4c(=O)c(F)cn(C(C)C)c4=O)sc23)c1O[C@@H]1CCNC[C@@H]1C` [Example 550, 3-[[7-[5-chloro-3-methyl-2-[[(3S,4R)-3-methyl-4-piperidyl]oxy]phenyl]thieno[3,2-b]pyridin-2-yl]methyl]-5-fluoro-1-isopropyl-pyrimidine-2,4-dione], for which the half-inhibitory concentration (IC50) is < 1000 nM.
